Measured values as given in patent US20100099614A1, “Antimicrobial Peptides and Methods of Use” (priority 2008, published 2010).
Where two headings read alike, the source gives them in different places.

System: multiple drug resistant M. tuberculosis strain vertulo
Settings: for Anti-tuberculosis activity to multi-drug resistant strain (vertulo) Fold (compared to D4): relative to D4

SMILES	Anti-tuberculosis activity to multi-drug resistant strain (vertulo) MIC [µg/mL]	Anti-tuberculosis activity to multi-drug resistant strain (vertulo) MIC (multiple drug resistant strain vertulo) [µM]	Anti-tuberculosis activity to multi-drug resistant strain (vertulo) Fold (compared to D4) [fold]
CC[C@@H](C)[C@@H](NC(=O)[C@@H](C)NC(=O)[C@@H](CCCCN)NC(=O)[C@@H](CC(C)C)NC(=O)[C@@H](C)NC(=O)[C@H](NC(=O)[C@@H](Cc1c[nH]cn1)NC(=O)[C@@H](CC(C)C)NC(=O)[C@H](NC(=O)[C@H](NC(=O)[C@@H](CCCCN)NC(=O)[C@@H](CCCCN)NC(=O)[C@@H](C)NC(=O)[C@@H](CO)NC(=O)[C@@H](CCCCN)NC(=O)[C@@H](Cc1ccccc1)NC(=O)[C@H](NC(=O)[C@@H](CCCCN)NC(=O)[C@@H](CC(C)C)NC(=O)[C@@H](Cc1ccccc1)NC(=O)[C@@H](CO)NC(=O)[C@@H](CCCCN)NC(=O)[C@@H](Cc1c[nH]c2ccccc12)NC(=O)[C@@H](CCCCN)NC(C)=O)[C@H](C)O)[C@H](C)O)C(C)C)[C@H](C)O)C(=O)N[C@H](CO)C(=O)N[C@H](CO)C(N)=O [D1]	57	19.1	>8.4
CC[C@@H](C)[C@@H](NC(=O)[C@@H](CC(C)C)NC(=O)[C@@H](CCCCN)NC(=O)[C@@H](CC(C)C)NC(=O)[C@@H](CC(C)C)NC(=O)[C@H](NC(=O)[C@@H](Cc1c[nH]cn1)NC(=O)[C@@H](CC(C)C)NC(=O)[C@@H](CCCCN)NC(=O)[C@H](NC(=O)[C@@H](CCCCN)NC(=O)[C@@H](CCCCN)NC(=O)[C@@H](CC(C)C)NC(=O)[C@@H](CO)NC(=O)[C@@H](CCCCN)NC(=O)[C@@H](Cc1ccccc1)NC(=O)[C@H](NC(=O)[C@@H](CCCCN)NC(=O)[C@@H](CC(C)C)NC(=O)[C@@H](Cc1ccccc1)NC(=O)[C@@H](CO)NC(=O)[C@@H](CCCCN)NC(=O)[C@@H](Cc1c[nH]c2ccccc12)NC(=O)[C@@H](CCCCN)NC(C)=O)[C@H](C)O)[C@H](C)O)[C@H](C)O)C(=O)N[C@H](CO)C(=O)N[C@H](CO)C(N)=O [D5]	–	–	>10.3
